{"source": "patent US20250066409A1", "about": "“DERIVATIVE OF PENTACYCLIC TRITERPENOIDAL SAPONIN AND ITS PREPARATION METHOD AND APPLICATION” (SOOCHOW UNIVERSITY, priority 2022, published 2025)", "key": {"IL-6": {"test_system": "IL-6", "experiment": "IL-6 release from LPS-stimulated THP-1 cells, ELISA", "format": "cell-based", "conditions": "pretreatment 1 h, LPS 1 μg/mL 24 h, P<0.05", "description": "(§1) THP-1 cells were seeded in a 6-well plate at 2×10^5 cells/well and cultured conventionally. After the cells reached 80%, they were induced with 100 ng/ml of PMA for 12 h, and then the original medium was discarded, and new complete medium was added. The control group was pretreated with B4 (0.1, 1, 10 μM) for 1 h, and the experimental group was pretreated with A3-6 (0.1, 1, 10 μM) for 1 h. After 1 h, the other groups were removed from the blank group and incubated with 1 μg/mL LPS for 24 h. The culture supernatant was collected, and the IL-6 and TNF-α contents were finally determined and calculated using ELISA kits step by step according to their instructions. The effect of A3-6 on the release of inflammatory factors was tested by ELISA kits."}, "TNF-α": {"test_system": "TNF-α", "experiment": "TNF-α release from LPS-stimulated THP-1 cells, ELISA", "format": "cell-based", "conditions": "pretreatment 1 h, LPS 1 μg/mL 24 h, P<0.05", "description": "as §1"}, "DSS-induced colitis mice": {"test_system": "DSS-induced colitis mice", "experiment": "DSS-induced colitis in mice (DAI score, colon length)", "format": "in vivo, ICR mice", "conditions": "B4 group (100 mg/kg by gavage), 5% DSS mice", "description": "ICR mice were fed normally for 3 days, with free access to water and food during the feeding period. After weighing, the mice were randomly divided into groups, including normal group, model group (DSS group), A3-6 (15, 30, 60 mg/kg) group, A3-6 (60 mg/kg)+DADA (50 mg/kg) group, and positive drug B4 (100 mg/kg) group. A3-6 was administered by gavage with hydroxypropyl β-cyclodextrin (1:3), B4 was dissolved in water and administered by gavage, and DADA (50 mg/kg) was injected intraperitoneally, once a day. The day before modeling, the weight was weighed and A3-6, DADA and B4 were pre-administered according to body weight. After 24 hours of administration, DSS was dissolved in the drinking water for mice. The mice in the model group and the administration group were continuously given 5% DSS for 8 days and weighed every day. […] After the 9th day of administration, the mice were sacrificed, blood and colon were collected, and the length of the colon was measured.\nA3-6 (15 mg/kg, 30 mg/kg and 60 mg/kg) or B4 (100 mg/kg) were administered by gavage once daily for 9 days. […] The DAI scores of each group of mice were calculated daily according to the scoring requirements.\nThe mice colitis model was constructed using 5% DSS to evaluate the therapeutic effect of A3-6 on inflammatory bowel disease (IBD)-. […] The DAI score of the mice was comprehensively evaluated."}}, "data": [{"smiles": "C=C(C)[C@@H]1CC[C@]2(C(=O)O[C@@H]3O[C@H](CO[C@@H]4O[C@H](CO)[C@@H](O[C@@H]5O[C@@H](C)[C@H](O)[C@@H](O)[C@H]5O)[C@H](O)[C@H]4O)[C@@H](O)[C@H](O)[C@H]3O)CC[C@]3(C)[C@H](CC[C@@H]4[C@@]5(C)CC[C@H](O[C@@H]6OC[C@H](O)[C@H](O)[C@H]6O[C@@H]6O[C@@H](C)[C@H](O)[C@@H](O)[C@H]6O)[C@@](C)(CO)[C@@H]5CC[C@]43C)[C@@H]12", "note": "[B4, anemoside B4]", "values": [{"measurement": "release of IL-6 compared with the model group", "setting": "IL-6; 1 μM", "value": "significantly reduced"}, {"measurement": "release of IL-6 compared with the model group", "setting": "IL-6; 10 μM", "value": "significantly reduced"}, {"measurement": "release of TNF-α compared with the model group", "setting": "TNF-α; 1 μM", "value": "significantly reduced"}, {"measurement": "release of TNF-α compared with the model group", "setting": "TNF-α; 10 μM", "value": "significantly reduced"}, {"measurement": "colon length", "setting": "DSS-induced colitis mice", "value": "could restore the colon length"}]}]}
